Earlier results as cited in patent US20040029723A1, “Novel aminophosphonium compounds” (Clariant GmbH, priority 1999, published 2004).

Conditions: background statement, no test or data described

## CCN(CC)[P+](N(CC)CC)(N(CC)CC)N(CC)CC.[Br-] [Tetrakis(diethylamino)phosphonium Bromide]
  dermal toxicity: very high
